For orientation: viability, T/C means the result in the treated group divided by that in the control group, in per cent. The term IC50 denotes the concentration that inhibits the measured activity by half.

Several values for one entry are separate records, joined by “and”; a condition that tells them apart may be missing. Equal entries are not always repeated.
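Also: spheroids exposed to agents for 7 days.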
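For viability, T/C in this document: 100% = DMSO vehicle control wells.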

In one assay the test system is 958767-090-R-J1-PDC spheroid growth. As to the kind of experiment: Anticancer human tumor 958767-090-R-J1-PDC patient-derived head and neck squamous carcinoma cell line growth inhibition [IpAb]. The following applies: compound 0.3 µM; stronger effect = lower value; spheroids with HUVEC and MSC. From the text: Combinatorial screen of targeted agents with ipatasertib and abemaciclib in multi-cell type tumor spheroids
A high-throughput screen of multi-cell type tumor spheroids was designed to identify active combinations of targeted small molecules and ipatasertib or abemaciclib. Complex spheroids include a stromal component modeled by human endothelial cells (HUVEC) and fibroblasts modeled by human mesenchymal stem cells (MSCs). The concentration ranges selected for each drug and investigational agent were based upon clinically achievable concentrations if the clinical Cmax of the agent was known.
Compounds. The drugs and investigational agents: ipatasertib (NSC767898), abemaciclib(NSC768073), selumetinib (NSC741078), trametinib (758246), adavosertib (NSC754352), everolimus (NSC733504), sapanisertib (NSC764658), vemurafenib (NSC761431), venetoclax (NSC766270), copanlisib (NSC809693), apelisib (NSC765974), palbociblib (NSC758247), vemurafenib (NSC761431), dabrafenib (NSC764134), ravoxertinib (NSC781343), BMS-387032 (NSC767048), sotorasib (NSC818433), talazoparib (NSC767125) and afursertib (NSC778305), were obtained from the National Cancer Institute (NCI) Developmental Therapeutics Program Chemical Repository. The FDA-approved anticancer drug set is available from the NCI Developmental Therapeutics Program. […] The stock solutions were prepared in dimethyl sulfoxide (DMSO, Sigma-Aldrich, St. Louis, MO, cat. D2650) at 800-fold the tested concentration and stored at -70 degrees C prior to their use. All drugs and investigational agents were tested over a range starting from a high concentration at or near the clinical Cmax and decreasing in half-log increments. If the clinical Cmax for an agent had not been determined, the highest concentration tested was 10 microM.
NCI60 Cell Culture. NCI60 cell lines were obtained from the NCI Developmental Therapeutics Program Tumor Repository. For each lot of cells, the Repository performed Applied Biosystems AmpFLSTR Identifiler testing with PCR amplification to confirm consistency with the published Identifier STR profile for each cell line. Cells were kept in continuous culture for no more than 20 passages. The optimal seeding densities for each of the cell lines at each time point assessed were determined prior to performing the concentration response studies. Briefly, the NCI60 human tumor lines were grown as monolayers in RPMI 1640 medium supplemented with 10% FBS and 2 mmol/L L-glutamine.
An additional 9 lines were from the NCI60 cell line panel including MDA-MB-231 breast carcinoma, MDA-MB-468 breast carcinoma, MCF7 breast carcinoma, Hs578T breast carcinoma, MALME-3M melanoma, SK-MEL-2 melanoma, SK-OV-3 ovarian carcinoma, DU-145 prostate carcinoma, PC-3 prostate carcinoma, all cell lines along with major genetic alterations are listed on Table 2. Pooled donor human umbilical vein endothelial cells (HUVEC, Lonza, cat. CC-2519) and human mesenchymal stem cells (hMSC, Lonza, cat. PT-2501) were purchased from Lonza (Walkersville, MD).
PDMR cell lines were grown in complete medium (DC medium): Dulbecco's modified Eagle's medium (DMEM)/F12 supplemented with 5% fetal bovine serum (FBS), 2 mM L-glutamine, 100 U/mL penicillin and 100 µg/ml streptomycin, 0.4 µg/ml hydrocortisone, 10 ng/ml epidermal growth factor (EGF) recombinant human protein, 24 µg/mL adenine, and 0.1 mg/mL primocin. During culture from frozen stock vials, PDMR cells were cultured in the same medium containing 10 µM Y-27632 (see Table 3). The PDCs were cultured in complete DMEM/F12 media without 10 microM Y-27632 dihydrochloride for at least two passages prior to the screen. The pooled donor HUVEC and hMSC were cultured in endothelial cell growth medium 2 (PromoCell, Heidelberg, Germany, cat. C-22011) and mesenchymal stem cell growth medium 2 (PromoCell, cat. C-28009), respectively. For all experiments, HUVEC and hMSC were used at passages </=5.
[…]
As to `CC(=O)c1c(C)c2cnc(Nc3ccc(N4CCNCC4)cn3)nc2n(C2CCCC2)c1=O`, the viability, T/C is 54.1% and 51.8%.
On the same count and under the same terms, as for `CC(C)(C)c1cnc(CSc2cnc(NC(=O)C3CCNCC3)s2)o1`, the figure is 6.79% and 3.17%; as for `Cn1cnc2c(F)c(Nc3ccc(Br)cc3Cl)c(C(=O)NOCCO)cc21`, 30.8% and 35.8%.

The same assay, now with this note: compound 0.316 µM; stronger effect = lower value; spheroids with HUVEC and MSC.
As for `C=CCn1c(=O)c2cnc(Nc3ccc(N4CCN(C)CC4)cc3)nc2n1-c1cccc(C(C)(C)O)n1`, the viability, T/C is 33.4% and 47.7%.
As to `CC1(C)CCC(CN2CCN(c3ccc(C(=O)NS(=O)(=O)c4ccc(NCC5CCOCC5)c([N+](=O)[O-])c4)c(Oc4cnc5[nH]ccc5c4)c3)CC2)=C(c2ccc(Cl)cc2)C1`, the viability, T/C was 90.3% and 99%.
Same read-out and setting: for `CCCS(=O)(=O)Nc1ccc(F)c(C(=O)c2c[nH]c3ncc(-c4ccc(Cl)cc4)cc23)c1F` the value was 92.7% and 98.5%; for `COc1c(OCCCN2CCOCC2)ccc2c3n(c(=NC(=O)c4cnc(N)nc4)nc12)CCN3`, 8.95% and 9.82%; for `Cc1nc(NC(=O)N2CCCC2C(N)=O)sc1-c1ccnc(C(C)(C)C(F)(F)F)c1` (stereo not given), 48.5% and 42.7%.

The same assay, now with this note: compound 0.949 µM; stronger effect = lower value; spheroids with HUVEC and MSC.
Turning to `CC(C)(C)c1cnc(CSc2cnc(NC(=O)C3CCNCC3)s2)o1`, the viability, T/C was 2.83% and 2.21%.
On the same count and under the same terms, for `Cn1cnc2c(F)c(Nc3ccc(Br)cc3Cl)c(C(=O)NOCCO)cc21` the value was 31% and 28.7%.

Still in this assay, the particulars now being: compound 1 µM; stronger effect = lower value; spheroids with HUVEC and MSC.
For the molecule `C=CCn1c(=O)c2cnc(Nc3ccc(N4CCN(C)CC4)cc3)nc2n1-c1cccc(C(C)(C)O)n1`, the viability, T/C was 27.7% and 37.4%.
For `CC1(C)CCC(CN2CCN(c3ccc(C(=O)NS(=O)(=O)c4ccc(NCC5CCOCC5)c([N+](=O)[O-])c4)c(Oc4cnc5[nH]ccc5c4)c3)CC2)=C(c2ccc(Cl)cc2)C1`, the viability, T/C is 93.9% and 100%.
`CCCS(=O)(=O)Nc1ccc(F)c(C(=O)c2c[nH]c3ncc(-c4ccc(Cl)cc4)cc23)c1F`: the viability, T/C is 94.9% and 96%.
In the case of `COc1c(OCCCN2CCOCC2)ccc2c3n(c(=NC(=O)c4cnc(N)nc4)nc12)CCN3`, the viability, T/C was 4.88% and 4.05%.
The same measure, in the same setting: for `Cc1nc(NC(=O)N2CCCC2C(N)=O)sc1-c1ccnc(C(C)(C)C(F)(F)F)c1` (stereo not given) the value was 32.3% and 36.4%.

The same assay, now with this note: compound 3 µM; stronger effect = lower value; spheroids with HUVEC and MSC.
For the molecule `CC(C)(C)c1cnc(CSc2cnc(NC(=O)C3CCNCC3)s2)o1`, the viability, T/C was 2.61% and 2.81%.
On the same count and under the same terms, as for `Cn1cnc2c(F)c(Nc3ccc(Br)cc3Cl)c(C(=O)NOCCO)cc21`, the figure is 17.2% and 19.8%.

Staying with this assay, now noted: compound 3.16 µM; stronger effect = lower value; spheroids with HUVEC and MSC.
Consider `C=CCn1c(=O)c2cnc(Nc3ccc(N4CCN(C)CC4)cc3)nc2n1-c1cccc(C(C)(C)O)n1`, for which the viability, T/C is 25% and 28.7%.
Same read-out and setting: as for `CC1(C)CCC(CN2CCN(c3ccc(C(=O)NS(=O)(=O)c4ccc(NCC5CCOCC5)c([N+](=O)[O-])c4)c(Oc4cnc5[nH]ccc5c4)c3)CC2)=C(c2ccc(Cl)cc2)C1`, the figure is 105% and 112%.
The same measure, in the same setting: as for `CCCS(=O)(=O)Nc1ccc(F)c(C(=O)c2c[nH]c3ncc(-c4ccc(Cl)cc4)cc23)c1F`, the figure is 98.5% and 96.4%.
Still for that read-out and setting: for `Cc1nc(NC(=O)N2CCCC2C(N)=O)sc1-c1ccnc(C(C)(C)C(F)(F)F)c1` (stereo not given) the value was 22.2% and 22.6%.

The same assay, now with this note: compound 10 µM; stronger effect = lower value; spheroids with HUVEC and MSC.
On to `C=CCn1c(=O)c2cnc(Nc3ccc(N4CCN(C)CC4)cc3)nc2n1-c1cccc(C(C)(C)O)n1`, for which the viability, T/C was 21.1% and 20.1%.
For `CC1(C)CCC(CN2CCN(c3ccc(C(=O)NS(=O)(=O)c4ccc(NCC5CCOCC5)c([N+](=O)[O-])c4)c(Oc4cnc5[nH]ccc5c4)c3)CC2)=C(c2ccc(Cl)cc2)C1`, the viability, T/C is 5.27% and 4.22%.
Same read-out and setting: for `CCCS(=O)(=O)Nc1ccc(F)c(C(=O)c2c[nH]c3ncc(-c4ccc(Cl)cc4)cc23)c1F` the value was 65.5% and 66.7%; for `Cc1nc(NC(=O)N2CCCC2C(N)=O)sc1-c1ccnc(C(C)(C)C(F)(F)F)c1` (stereo not given), 9.48% and 9.72%.

Staying with this assay, now noted: curve of compound; spheroids with HUVEC and MSC.
In the case of `C=CCn1c(=O)c2cnc(Nc3ccc(N4CCN(C)CC4)cc3)nc2n1-c1cccc(C(C)(C)O)n1`, the half-maximal inhibitory concentration (IC50) was 195 nM and 344 nM.
For `CC(=O)c1c(C)c2cnc(Nc3ccc(N4CCNCC4)cn3)nc2n(C2CCCC2)c1=O`, the IC50 was > 300 nM.
Still for that read-out and setting: as for `CC(C)(C)c1cnc(CSc2cnc(NC(=O)C3CCNCC3)s2)o1`, the figure is 159 nM and 172 nM; as for `CC(C)n1nc(-c2ccc3oc(N)nc3c2)c2c(N)ncnc21`, 13.9 nM and 11.9 nM; as for `CC1(C)CCC(CN2CCN(c3ccc(C(=O)NS(=O)(=O)c4ccc(NCC5CCOCC5)c([N+](=O)[O-])c4)c(Oc4cnc5[nH]ccc5c4)c3)CC2)=C(c2ccc(Cl)cc2)C1`, 5490 nM and 5830 nM.
Same read-out and setting: as for `CCCS(=O)(=O)Nc1ccc(F)c(C(=O)c2c[nH]c3ncc(-c4ccc(Cl)cc4)cc23)c1F`, the figure is > 10000 nM; as for `COc1c(OCCCN2CCOCC2)ccc2c3n(c(=NC(=O)c4cnc(N)nc4)nc12)CCN3`, 10.7 nM and 18.2 nM.
Still for that read-out and setting: for `Cc1nc(NC(=O)N2CCCC2C(N)=O)sc1-c1ccnc(C(C)(C)C(F)(F)F)c1` (stereo not given) the value was 304 nM and 311 nM; for `Cn1cnc2c(F)c(Nc3ccc(Br)cc3Cl)c(C(=O)NOCCO)cc21`, 28.4 nM and 43.7 nM.
Turning to `Cn1ncnc1[C@H]1c2n[nH]c(=O)c3cc(F)cc(c23)N[C@@H]1c1ccc(F)cc1`, the IC50 was > 100 nM.
